Laboratory results: US20100152129A1 (priority 2008, published 2010)
Read-outs that look alike come from different tables or passages of the source.

Columns and labels:
[1] = tested on: Panc1 cells; conditions: human
[2] = tested on: Panc-1 cells; assay: Protein expression using high content cell imaging system, and efficacy score; type: cell-based; conditions: for Efficacy score: cumulative over proteins of Table 7
Description: The data was generated using cell imaging system, where, cells after drug exposure were treated with protein specific antibody, followed by detection markers for the antibody. The images were generated and protein levels quantitated as an indication of drug effect.
Methodology: Panc-1 cells were seeded at a density of 5000 cells per well in 96 well plates and allowed recovery for 24 hrs in 5% CO2 incubator. After recovery, cells were challenged with Gemcitabine (IC30) for 24 hrs. After 24 hrs Gemcitabine was removed and fresh medium was added. […] The combination efficacy was identified against single treatments. At the end of the experiment Panc-1 cells were fixed and permeabilized. All the primary antibodies were added at a concentration according to manufacture protocol. After one hour incubation the cells were washed three times and labeled with secondary antibodies tagged with Dye Light 548 and nucleus was stained with Hoechest3342. After antibody labeling, cells were stained with the Cellomics whole Cell Stain Green to identify the cell's cytoplasmic area. Then all the plates were scanned in Cellomics ArrayScan® VTI HCS Reader. The results were analyzed using software that is designed for measuring the read from the imaging system.
Expression of proteins listed in Table 7 were determined in terms of fluorescence unit obtained by using target activation algorithm from High content imaging system from Cellomics. • Protein expression data expressed as fluorescent units from Table 7 were used to generate expression ratio by comparing drug treatments (individual or combination) against the normal control with no drug treatment. The ratio of expression which is considered as dys-regulation (1.5 fold above or below the range for up-regulation and down regulation respectively) is subtracted from the normal range (±1.5) and is used to measure the efficacy score.
Expression ratio=protein expression during drug treatment/protein expression under normal control.
Efficacy score =Cumulative score (expression ratio−±1.50) for all proteins.

[3] = tested on: Panc-1 cells; assay: CCK-8 based cytotoxicity assay; type: cell-based; conditions: Gem 10 nM
Description: CCK-8 based cytotoxicity assay is a sensitive nonradioactive colorimetric assay for determining the number of viable cells in cell proliferation and cytotoxicity assays. WST-8 (2-(2-methoxy-4-nitrophenyl)-3-(4-nitrophenyl)-5-(2,4-disulfophenyl)-2H tetrazolium, monosodium salt) is bioreduced by cellular dehydrogenases to an orange formazan product that is soluble in tissue culture medium. The amount of formazan produced is directly proportional to the number of living cells.
Test System: The Panc-1 cell line was procured from ATCC (American Tissue type Culture Collection USA, catalog number: CRL-1469) and the frozen vial was stored in liquid nitrogen container.
Panc-1 cells were seeded at a density of 3000 cells/well in a 96 well plate and allowed to recover for 24 hrs in a CO2 incubator at 37° C. […] The final DMSO concentration was 0.5% in wells. Plates were incubated for 24, 48, and 72 hrs. At the end of incubation CCK-8 was added and kept at 37° C. for 3 hrs following which absorbance was measured at 450 nm.

[4] = 6 hours post treatment, control 1
[5] = 6 hours post treatment, control 3
[6] = 6 hours post treatment, control 6
[7] = 6 hours post treatment, control 7
[8] = 6 hours post treatment, control 8
[9] = 6 hours post treatment, control 74
[10] = 6 hours post treatment, control 80
[11] = 6 hours post treatment, control 147
[12] = 6 hours post treatment, control 501
[13] = 6 hours post treatment, control 627
[14] = 6 hours post treatment, control 635
[15] = 6 hours post treatment, control 819
[16] = 6 hours post treatment, control 829
[17] = 6 hours post treatment, control 830
[18] = 6 hours post treatment, control 1240
[19] = 16 hours post treatment, control 13
[20] = 16 hours post treatment, control 54
[21] = 16 hours post treatment, control 64
[22] = 16 hours post treatment, control 67
[23] = 16 hours post treatment, control 76
[24] = 16 hours post treatment, control 77
[25] = 16 hours post treatment, control 90
[26] = 16 hours post treatment, control 100
[27] = 16 hours post treatment, control 202
[28] = 16 hours post treatment, control 579
[29] = 16 hours post treatment, control 644
[30] = 16 hours post treatment, control 711
[31] = 16 hours post treatment, control 718
[32] = 16 hours post treatment, control 929
[33] = 16 hours post treatment, control 1109
[34] = 16 hours post treatment, control 2583
[35] = 36 hours post treatment, control 19
[36] = 36 hours post treatment, control 96
[37] = 36 hours post treatment, control 98
[38] = 36 hours post treatment, control 100
[39] = 36 hours post treatment, control 265
[40] = 36 hours post treatment, control 715
[41] = 36 hours post treatment, control 722
[42] = 36 hours post treatment, control 1093
[43] = 36 hours post treatment, control 1316
[44] = 36 hours post treatment, control 1410
[45] = 36 hours post treatment, control 1441
[46] = 36 hours post treatment, control 2840

## Nc1ccn([C@@H]2O[C@H](CO)[C@@H](O)C2(F)F)c(=O)n1 [Gemcitabine, 2′, 2′-difluorodeoxycytidine]
[1]; 6 h
  % Cytotoxicity in Panc1 cells: 2.31%
[1]; 16 h
  % Cytotoxicity in Panc1 cells: 6.54%
[1]; 36 h
  % Cytotoxicity in Panc1 cells: 7.23%
[2]; [4]
  PTN protein expression: 6 fluorescence units
[2]; [5]
  GADD45-α protein expression: 4 fluorescence units
  ID1 protein expression: 7 fluorescence units
[2]; [6]
  P27 protein expression: 4 fluorescence units
[2]; [7]
  CDC25B protein expression: 8 fluorescence units
[2]; [8]
  CDKN2A protein expression: 60 fluorescence units
[2]; [9]
  CCND1 protein expression: 83 fluorescence units
[2]; [10]
  GAPDH protein expression: 84 fluorescence units
[2]; [11]
  CASP3 protein expression: 115 fluorescence units
[2]; [12]
  MMP-1 protein expression: 448 fluorescence units
[2]; [13]
  COX15 protein expression: 1100 fluorescence units
[2]; [14]
  COX2 protein expression: 462 fluorescence units
[2]; [15]
  BAX protein expression: 892 fluorescence units
[2]; [16]
  VEGF protein expression: 448 fluorescence units
[2]; [17]
  BCL2 protein expression: 630 fluorescence units
[2]; [18]
  pRB protein expression: 1318 fluorescence units
[2]; 6 hours
  Efficacy score: 1.6
[2]; [19]
  GADD45-α protein expression: 70 fluorescence units
[2]; [20]
  CDC25B protein expression: 50 fluorescence units
[2]; [21]
  CDKN2A protein expression: 57 fluorescence units
[2]; [22]
  P27 protein expression: 72 fluorescence units
[2]; [23]
  PTN protein expression: 68 fluorescence units
[2]; [24]
  ID1 protein expression: 62 fluorescence units
[2]; [25]
  CCND1 protein expression: 66 fluorescence units
[2]; [26]
  GAPDH protein expression: 98 fluorescence units
[2]; [27]
  CASP3 protein expression: 570 fluorescence units
[2]; [28]
  VEGF protein expression: 604 fluorescence units
[2]; [29]
  BCL2 protein expression: 693 fluorescence units
[2]; [30]
  BAX protein expression: 926 fluorescence units
[2]; [31]
  COX15 protein expression: 1134 fluorescence units
[2]; [32]
  MMP-1 protein expression: 604 fluorescence units
[2]; [33]
  COX2 protein expression: 1151 fluorescence units
[2]; [34]
  pRB protein expression: 1931 fluorescence units
[2]; 16 hours
  Efficacy score: 7.6
[2]; [35]
  GADD45-α protein expression: 51 fluorescence units
[2]; 36 hours post treatment, control 86
  COX2 protein expression: 55 fluorescence units
[2]; [36]
  P27 protein expression: 67 fluorescence units
[2]; [37]
  CCND1 protein expression: 75 fluorescence units
  CDC25B protein expression: 29 fluorescence units
  GAPDH protein expression: 59 fluorescence units
  ID1 protein expression: 26 fluorescence units
[2]; [38]
  PTN protein expression: 94 fluorescence units
[2]; [39]
  CASP3 protein expression: 633 fluorescence units
[2]; [40]
  BAX protein expression: 1783 fluorescence units
[2]; [41]
  COX15 protein expression: 1990 fluorescence units
[2]; [42]
  VEGF protein expression: 807 fluorescence units
[2]; [43]
  MMP-1 protein expression: 807 fluorescence units
[2]; [44]
  BCL2 protein expression: 698 fluorescence units
[2]; [45]
  CDKN2A protein expression: 1483 fluorescence units
[2]; [46]
  pRB protein expression: 2188 fluorescence units
[2]; 36 hours
  Efficacy score: 7.4
[3]; 24 hrs
  % Cytotoxicity: 21.997%
[3]; 48 hrs
  % Cytotoxicity: 27.571%
[3]; 72 hrs
  % Cytotoxicity: 31.47%
[3]; 72 hrs, listed as Gem
  % Cytotoxicity: 31.471%

## CN1CC[C@@H](c2c(O)cc(O)c3c(=O)cc(-c4ccccc4Cl)oc23)[C@@H]1CO.Cl (relative stereo) [P276-00, (+)-trans-2-(2-Chloro-phenyl)-5,7-dihydroxy-8-(2-hydroxy-methyl-1-methyl-pyrrolidin-3-y1)-chromen-4-one hydrochloride]
[2]; [4]
  PTN protein expression: 2 fluorescence units
[2]; [5]
  GADD45-α protein expression: 10 fluorescence units
  ID1 protein expression: 1 fluorescence units
[2]; [6]
  P27 protein expression: 7 fluorescence units
[2]; [7]
  CDC25B protein expression: 2 fluorescence units
[2]; [8]
  CDKN2A protein expression: 76 fluorescence units
[2]; [9]
  CCND1 protein expression: 84 fluorescence units
[2]; [10]
  GAPDH protein expression: 96 fluorescence units
[2]; [11]
  CASP3 protein expression: 152 fluorescence units
[2]; [12]
  MMP-1 protein expression: 618 fluorescence units
[2]; [13]
  COX15 protein expression: 907 fluorescence units
[2]; [14]
  COX2 protein expression: 406 fluorescence units
[2]; [15]
  BAX protein expression: 700 fluorescence units
[2]; [16]
  VEGF protein expression: 618 fluorescence units
[2]; [17]
  BCL2 protein expression: 376 fluorescence units
[2]; [18]
  pRB protein expression: 1540 fluorescence units
[2]; 6 hours
  Efficacy score: 4.7
[2]; [19]
  GADD45-α protein expression: 23 fluorescence units
[2]; [20]
  CDC25B protein expression: 15 fluorescence units
[2]; [21]
  CDKN2A protein expression: 9 fluorescence units
[2]; [22]
  P27 protein expression: 12 fluorescence units
[2]; [23]
  PTN protein expression: 12 fluorescence units
[2]; [24]
  ID1 protein expression: 18 fluorescence units
[2]; [25]
  CCND1 protein expression: 46 fluorescence units
[2]; [26]
  GAPDH protein expression: 100 fluorescence units
[2]; [27]
  CASP3 protein expression: 607 fluorescence units
[2]; [28]
  VEGF protein expression: 264 fluorescence units
[2]; [29]
  BCL2 protein expression: 81 fluorescence units
[2]; [30]
  BAX protein expression: 644 fluorescence units
[2]; [31]
  COX15 protein expression: 852 fluorescence units
[2]; [32]
  MMP-1 protein expression: 264 fluorescence units
[2]; [33]
  COX2 protein expression: 375 fluorescence units
[2]; [34]
  pRB protein expression: 1400 fluorescence units
[2]; 16 hours
  Efficacy score: 10.8
[2]; [35]
  GADD45-α protein expression: 31 fluorescence units
[2]; [36]
  P27 protein expression: 5 fluorescence units
[2]; [37]
  CCND1 protein expression: 25 fluorescence units
  CDC25B protein expression: 4 fluorescence units
  GAPDH protein expression: 2 fluorescence units
  ID1 protein expression: 6 fluorescence units
[2]; [38]
  PTN protein expression: 100 fluorescence units
[2]; [39]
  CASP3 protein expression: 670 fluorescence units
[2]; [40]
  BAX protein expression: 1120 fluorescence units
[2]; [41]
  COX15 protein expression: 1327 fluorescence units
[2]; [42]
  VEGF protein expression: 355 fluorescence units
[2]; [43]
  MMP-1 protein expression: 355 fluorescence units
[2]; [44]
  BCL2 protein expression: 374 fluorescence units
[2]; [45]
  CDKN2A protein expression: 707 fluorescence units
[2]; [46]
  pRB protein expression: 1657 fluorescence units
[2]; 36 hours
  Efficacy score: 11.1
